Earlier results in patent US20250051594A1, “INKJET INK” (KYOCERA DOCUMENT SOLUTIONS INC., priority 2023, published 2025).
Read-outs that look alike come from different tables or passages of the source.

Conditions: octanol/water partition coefficient of the organic solvent

SMILES	LogKow	LogKow (listed as ethylene glycolbutylethylether)	LogKow (listed as propylene glycol)
CCCCOCCOCCOC [Diethylene glycolbutylmethylether]	−1.20		
CCCOC(C)COC(C)CO (centres unmarked) [Dipropylene glycol monopropylether]	−1.53		
COCCOCCO [Diethylene glycol monomethylether]	−1.18		
OCCCO [1,3-propanediol]	−1.04		
COCCOCCOCCO [Triethylene glycol monomethylether]	−1.46		
CCCCOCCOCC [EBEE, ethylene glycol butylethylether]	−1.88	lower than −1.80	
CCCCOCC(C)O (centres unmarked) [Propylene glycol monobutylether]	−1.36		
OCC(O)CO [Glycerin]	−1.76		
CC(O)CO (centres unmarked) [PG, propylene glycol]	−0.92		higher than −1.00
COC(C)COC(C)COC(C)CO (centres unmarked) [Tripropylene glycol monomethylether]	−1.24		
OCCOCCOCCO [Triethylene glycol]	−1.75		
OCCOCCO [Diethylene glycol]	−1.47		
